From the supplement of paper PMC13380429

Key:
[1] = system: Calu-3; assay: drug sensitivity score (DSS) for viability; higher = more toxic; extreme values may be limits of the assay; conditions: 72 h
[2] = system: Vero E6; assay: as above; conditions: 72 h
[3] = system: Caco-2; assay: as above; conditions: 72 h
[4] = system: HepG2; assay: as above; conditions: 72 h
[5] = system: Calu-3; assay: relative viability EC50 (midpoint between 100% and the lowest measured viability); higher = less toxic; conditions: 72 h
[6] = system: Vero E6; assay: as above; conditions: 72 h
[7] = system: Caco-2; assay: as above; conditions: 72 h
[8] = system: HepG2; assay: as above; conditions: 72 h
[9] = system: A549-ACE2 infected with SARS-CoV-2; assay: morphology score (similarity to uninfected cells); higher = more like uninfected cells; conditions: 24 h
[10] = system: Calu-3; assay: cell viability relative to DMSO; higher = less toxic; conditions: 72 h
[11] = system: Vero E6; assay: as above; conditions: 72 h
[12] = system: Caco-2; assay: as above; conditions: 72 h
[13] = system: HepG2; assay: as above; conditions: 72 h
[14] = system: A549-ACE2; assay: drug-induced phospholipidosis relative to tamoxifen; higher = more phospholipidosis
[15] = system: A549-ACE2 infected with SARS-CoV-2; assay: cell count relative to DMSO; higher = less toxic; conditions: 24 h
[16] = system: A549-ACE2 infected with SARS-CoV-2; assay: SARS-CoV-2 infection rate relative to DMSO; higher = more infection; conditions: 24 h
[17] = system: U2OS; assay: drug sensitivity score (DSS) for viability; higher = more toxic; extreme values may be limits of the assay; conditions: 72 h
[18] = system: U2OS; assay: relative viability EC50 (midpoint between 100% and the lowest measured viability); higher = less toxic; conditions: 72 h
[19] = system: U2OS; assay: cell viability relative to DMSO; higher = less toxic; conditions: 72 h
[20] = system: A549-ACE2; assay: phospholipidosis EC50; higher = less potent phospholipidosis inducer

CC(=O)N(O)[C@@H]1c2cc(C#N)ccc2OC(C)(C)[C@H]1O
Conditions	drug sensitivity score	relative viability EC50 [µM]
[1]	0	–
[2]	0	–
[3]	0	–
[4]	0	–
[5]	–	> 10
[6]	–	> 10
[7]	–	> 10
[8]	–	> 10

Conditions	SARS-CoV-2 infection rate, [16] [%]	cell count, [15] [%]	cell viability, [10] [%]	cell viability, [11] [%]	cell viability, [12] [%]	cell viability, [13] [%]	morphology score, [9]
1 nM	–	–	103	94.6	102	101	–
10 nM	–	–	90.8	102	86.8	108	–
100 nM	–	–	89.9	96.5	93.1	95.8	–
0.3 µM	93	105	–	–	–	–	0.26
1000 nM	–	–	102	102	104	107	–
3 µM	77	107	–	–	–	–	0.56
10 µM	40	119	–	–	–	–	0.81
10000 nM	–	–	95.2	95.6	99.7	105	–
30 µM	36	116	–	–	–	–	0.82

drug-induced phospholipidosis [%], [14]
Conditions	0.3 µM	0.833333 µM	3.33333 µM	6.66667 µM	10 µM	30 µM
24 h	5.83	-1.4	-3.17	0.06	-1.41	3.58
48 h	5.86	-0.55	-0.21	-2.36	-0.04	3.92
72 h	1.36	-4.06	-1.89	-2.87	0.112	6.24

CC(C)(C)Cn1c(N)nc2ccc(-c3[nH]c(C(C)(C)C)nc3-c3ccc(F)cc3)nc21
Conditions	drug sensitivity score	relative viability EC50 [µM]
[1]	6.1	–
[2]	6.7	–
[3]	2.9	–
[4]	0.6	–
[8]	–	> 10
[17]	1.2	–
[18]	–	> 10

Conditions	SARS-CoV-2 infection rate, [16] [%]	cell count, [15] [%]	cell viability, [10] [%]	cell viability, [11] [%]	cell viability, [12] [%]	cell viability, [13] [%]	cell viability, [19] [%]	morphology score, [9]
1 nM	–	–	107	93.2	102	97	99	–
10 nM	–	–	94.6	94.5	98.1	92.8	98.4	–
100 nM	–	–	85.5	83.6	89.6	100	95.2	–
0.3 µM	118	87	–	–	–	–	–	-0.39
1000 nM	–	–	75.3	72.4	86.6	94.9	91.7	–
3 µM	8	129	–	–	–	–	–	0.95
10 µM	4	124	–	–	–	–	–	0.96
10000 nM	–	–	54.1	58.7	68	85.3	77.4	–
30 µM	8	100	–	–	–	–	–	0.66

drug-induced phospholipidosis [%], [14]
Conditions	0.3 µM	0.833333 µM	3.33333 µM	6.66667 µM	10 µM	30 µM
24 h	-0.05	-0.99	3.52	13.5	24.9	60.6
48 h	1.57	1.82	5.06	15.9	25.2	57.1
72 h	2.63	3.92	4.98	13.2	27	–

Cc1[nH]c(/C=C2\C(=O)Nc3ccc(S(=O)(=O)Cc4c(Cl)cccc4Cl)cc32)c(C)c1C(=O)N1CCC[C@@H]1CN1CCCC1
Conditions	SARS-CoV-2 infection rate [%]	cell count [%]	cell viability [%]	morphology score	phospholipidosis EC50 [µM]
[9], 0.1 µM	–	–	–	-0.01	–
[9], 0.3 µM	–	–	–	0.51	–
[9], 1 µM	–	–	–	0.6	–
[9], 3 µM	–	–	–	0.73	–
[10], 1 nM	–	–	100	–	–
[10], 10 nM	–	–	98.2	–	–
[10], 100 nM	–	–	109	–	–
[10], 1000 nM	–	–	100	–	–
[10], 10000 nM	–	–	4.3	–	–
[11], 1 nM	–	–	99.9	–	–
[11], 10 nM	–	–	97.5	–	–
[11], 100 nM	–	–	101	–	–
[11], 1000 nM	–	–	91.1	–	–
[11], 10000 nM	–	–	57	–	–
[12], 1 nM	–	–	90.9	–	–
[12], 10 nM	–	–	99.2	–	–
[12], 100 nM	–	–	104	–	–
[12], 1000 nM	–	–	103	–	–
[12], 10000 nM	–	–	3.7	–	–
[13], 1 nM	–	–	102	–	–
[13], 10 nM	–	–	96.9	–	–
[13], 100 nM	–	–	102	–	–
[13], 1000 nM	–	–	104	–	–
[13], 10000 nM	–	–	3.3	–	–
[15], 0.1 µM	–	98	–	–	–
[15], 0.3 µM	–	109	–	–	–
[15], 1 µM	–	108	–	–	–
[15], 3 µM	–	115	–	–	–
[16], 0.1 µM	109	–	–	–	–
[16], 0.3 µM	83	–	–	–	–
[16], 1 µM	74	–	–	–	–
[16], 3 µM	26	–	–	–	–
[19], 1 nM	–	–	97.2	–	–
[19], 10 nM	–	–	100	–	–
[19], 100 nM	–	–	95.7	–	–
[19], 1000 nM	–	–	103	–	–
[19], 10000 nM	–	–	0.9	–	–
[20], 24 h	–	–	–	–	3.45
[20], 48 h	–	–	–	–	3.61
[20], 72 h	–	–	–	–	3.54

Conditions	drug sensitivity score	relative viability EC50 [µM]
[1]	5.4	–
[2]	3.6	–
[3]	5.1	–
[4]	5.1	–
[5]	–	3.17
[7]	–	3.36
[8]	–	3.39
[17]	5.3	–
[18]	–	3.35

drug-induced phospholipidosis [%], [14]
Conditions	0.3 µM	0.833333 µM	3.33333 µM	6.66667 µM	10 µM
24 h	20.1	33	77.3	173	149
48 h	14.3	18.9	53.1	177	149
72 h	13.7	15.6	43.6	149	64.6

O=C(c1ccc(/C=C/c2n[nH]c3ccccc23)cc1)N1CCNCC1 [KW-2449]
Conditions	drug sensitivity score	relative viability EC50 [µM]
[2]	0	–
[3]	0	–
[4]	2.2	–
[6]	–	> 10
[7]	–	> 10
[17]	1.7	–

Conditions	SARS-CoV-2 infection rate, [16] [%]	cell count, [15] [%]	cell viability, [11] [%]	cell viability, [12] [%]	cell viability, [13] [%]	cell viability, [19] [%]	morphology score, [9]
1 nM	–	–	103	98.7	102	103	–
10 nM	–	–	104	98.6	108	102	–
100 nM	–	–	99.3	97.2	98.6	101	–
0.3 µM	98	105	–	–	–	–	0.33
1000 nM	–	–	101	99	94.6	100	–
3 µM	79	59	–	–	–	–	0.51
10 µM	26	39	–	–	–	–	0.62
10000 nM	–	–	95.3	108	69.6	63.1	–
30 µM	40	1	–	–	–	–	0.12

drug-induced phospholipidosis [%], [14]
Conditions	0.3 µM	0.833333 µM	3.33333 µM	6.66667 µM	10 µM
24 h	-0.51	-0.69	3.6	13.3	8.57
48 h	-1.26	-3.23	0.95	9.27	0.37
72 h	-0.724	-3.37	–	–	–
